The source of these data is patent US12577241B2, “Polycyclic pyridopyrazine derivative” (Shionogi & Co., Ltd., priority 2019, dated 2026).

The test system of one experiment is HIV. The experiment is described as follows: Test Example 1B: Anti-HIV activity (MT-4 cells, MTT). Type of experiment: cell-based. As to conditions: Human immunodeficiency virus 1, MT4, 96 h, 4 days culture, MTT absorbance, read-out: EC50 (50% HIV inhibitory concentration). The protocol: Test Example 1B: Anti-HIV Activity
Serial dilutions of a test sample were prepared in a 96-well microplate (50 μL/well). 2.5×10^5 cells/mL of a MT-4 cell suspension was dispensed at 100 μL/well to the plate containing the test sample. Then, an HIV virus solution was dispensed at 50 μL/well. The plate was mixed with a plate mixer and cultured for 4 days in a CO2 incubator. An MTT (3-(4,5-dimethylthiazol-2-yl)-2,5-diphenyltetrazolium bromide) solution was dispensed at 30 μL/well. The plate was reacted for 1 hour in a CO2 incubator. 150 μL of the supernatant was removed from each well so as not to take up the cells. 150 μL of a cell lysis solution was added to each well and well mixed with a plate mixer until the cells were completely lysed. The absorbance of the mixed plate was measured at two wavelengths of 560 nm and 690 nm using a microplate reader. A 50% HIV inhibitory concentration (EC50) was determined from a concentration-dependent curve using the following 4 parameter logistic curve fitting model. y=A+((B−A)/(1+(C/x)^D)) • A=minimum rate of inhibition (negative control, 0%) • B=maximum rate of inhibition (positive control, 100%) • C=compound concentration at an inflection point • D=slope coefficient • x=compound concentration • y=rate of inhibition (%) (Results)
As to `CCN1C(=O)c2c(O)c(=O)c(C(=O)NCc3cccc(Cl)c3F)cn2[C@H]2CCC3(CC3)C[C@H]21` [Compound I-036], the EC50 was determined as 7.1 nM. Same read-out and setting: the result for `CCN1C(=O)c2c(O)c(=O)c(C(=O)NCc3cccc(Cl)c3F)cn2[C@H]2[C@@H]1[C@@H]1CC[C@H]2O1` [Compound I-043] reads 6.2 nM; that for `CCN1C(=O)c2c(O)c(=O)c(C(=O)NCc3nccc(Cl)c3F)cn2[C@H]2Cc3ccccc3[C@H]21` [Compound I-034], 12 nM. On the same count and under the same terms, the result for `CCN1C(=O)c2c(O)c(=O)c(C(=O)NCc3nccc(Cl)c3F)cn2[C@@H]2CC(F)(F)CC[C@@H]21` [Compound I-041] reads 12 nM; that for `CCN1C(=O)c2c(O)c(=O)c(C(=O)NCc3nccc(Cl)c3F)cn2[C@@H]2[C@H]1CCC2(F)F` [Compound I-040], 13 nM. On the same count and under the same terms, for `CCN1C(=O)c2c(O)c(=O)c(C(=O)NCc3ccc(F)cc3F)cn2[C@H]2Cc3ccccc3[C@H]21` [Compound I-035] the value was 5.4 nM; for `CCN1C(=O)c2c(O)c(=O)c(C(=O)NCc3nccc(Cl)c3F)cn2[C@H]2CC(F)(F)CC[C@H]21` [Compound I-042], 7.9 nM; for `CCN1C(=O)c2c(O)c(=O)c(C(=O)NCc3cccc(Cl)c3F)cn2[C@@H]2[C@H]1[C@H]1CC[C@@H]2O1` [Compound I-044], 7 nM.

As for `CCN1C(=O)c2c(O)c(=O)c(C(=O)NCc3cccc(Cl)c3F)cn2[C@H]2Cc3ccccc3[C@H]21` [Compound I-033], the EC50 is 9.7 nM. Same read-out and setting: for `CCN1C(=O)c2c(O)c(=O)c(C(=O)NCc3nccc(Cl)c3F)cn2[C@H]2[C@@H]1CCC2(F)F` [Compound I-039] the value was 9.8 nM. Same read-out and setting: for `CCN1C(=O)c2c(O)c(=O)c(C(=O)NCc3ccc(F)cc3F)cn2[C@H]2[C@@H]1CCC2(F)F` [Compound I-037] the value was 3.6 nM. For the molecule `CCN1C(=O)c2c(O)c(=O)c(C(=O)NCc3ccc(F)cc3F)cn2[C@@H]2[C@H]1CCC2(F)F` [Compound I-038], the EC50 was found to be 4.3 nM.

The test system of the next experiment is HIV. The experiment is described as follows: Test Example 1: Anti-HIV activity (MT-4 cells, CellTiter-Glo). In kind it is cell-based. As to conditions: 4 days culture, CellTiter-Glo luminescence, read-out: EC50 (50% HIV inhibitory concentration). The protocol: Test Example 1: Anti-HIV Activity
Serial dilutions of a test sample were prepared in a 384-well microplate by a dispensing machine. 6.25×10^4 cells/mL of a MT-4 cell suspension was dispensed at 20 μL/well to the plate containing the test sample. Then, an HIV virus solution was dispensed at 20 μL/well. The plate was mixed with a plate mixer and cultured for 4 days in a CO2 incubator. On day 4 of culture, CellTiter-Glo or CellTiter-Glo 2.0 was dispensed at 20 μL/well. The plate was reacted while being stirred with the plate mixer at room temperature for about 15 minutes. The amount of luminescence of the plate after the reaction was measured with a microplate reader. A 50% HIV inhibitory concentration (EC50) was determined from a concentration-dependent curve using the following 4 parameter logistic curve fitting model. y=A+((B−A)/(1+((C/x)^D))) • A=minimum rate of inhibition (negative control, 0%) • B=maximum rate of inhibition (positive control, 100%) • C=compound concentration at an inflection point • D=slope coefficient • x=compound concentration • y=rate of inhibition (%) (Results)
In the case of `CCN1C(=O)c2c(O)c(=O)c(C(=O)NCc3cccc(Cl)c3F)cn2[C@H]2[C@H](COC)CC[C@H]21` [Compound I-013], the EC50 came out at 2.5 nM.

Consider `CCN1C(=O)c2c(O)c(=O)c(C(=O)NCc3cccc(Cl)c3F)cn2[C@H]2CC(F)(F)C[C@H]21` [Compound I-001], for which the EC50 stood at 1.4 nM.

The same experiment, now with this note: Human immunodeficiency virus 1, MT4, 96 h, 4 days culture, CellTiter-Glo luminescence, read-out: EC50 (50% HIV inhibitory concentration).
In the case of `CCN1C(=O)c2c(O)c(=O)c(-c3nnc(Cc4ccc(F)cc4F)s3)cn2[C@H]2[C@@H]3CC[C@@H](C3)[C@H]21` [Compound I-019], the EC50 was 8.2 nM. The same measure, in the same setting: for `CCN1C(=O)c2c(O)c(=O)c(C(=O)NCc3cccc(Cl)c3F)cn2[C@H]2C[C@@H](COC)C[C@H]21` [Compound I-015] the value was 2.5 nM; for `CCN1C(=O)c2c(O)c(=O)c(C(=O)NCc3c(F)cc(F)cc3F)cn2[C@@H]2[C@H]1CCCC2(F)F` [Compound I-006], 0.63 nM. With `CN1C(=O)c2c(O)c(=O)c(C(=O)NCc3c(F)cc(F)cc3F)cn2[C@H]2CCCC[C@H]21` [Compound I-027], the EC50 amounted to 0.7 nM. On the same count and under the same terms, the result for `CCN1C(=O)c2c(O)c(=O)c(-c3nnc(Cc4ccc(F)cc4F)s3)cn2[C@H]2CCCC(F)(F)[C@H]21` [Compound I-021] reads 3.6 nM; that for `CCN1C(=O)c2c(O)c(=O)c(C(=O)NCc3cccc(Cl)c3F)cn2[C@H]2CCC[C@H]21` [Compound I-029], 2.2 nM.

In the case of `CCN1C(=O)c2c(O)c(=O)c(C(=O)NCc3c(F)cc(F)cc3F)cn2[C@H]2[C@@H]3CC[C@@H](C3)[C@H]21` [Compound I-010], the EC50 stood at 5.2 nM. `CCN1C(=O)c2c(O)c(=O)c(C(=O)NCc3cccc(Cl)c3F)cn2[C@H]2CCCC[C@H]21` [Compound I-024]: the EC50 is 1.9 nM. Turning to `CCN1C(=O)c2c(O)c(=O)c(C(=O)NCc3c(F)cc(F)cc3F)cn2[C@H]2CCC[C@H]21` [Compound I-030], the EC50 worked out at 2.6 nM.

Consider `CCN1C(=O)c2c(O)c(=O)c(C(=O)NCc3c(F)cc(F)cc3F)cn2[C@H]2CCCC(F)(F)[C@H]21` [Compound I-008], for which the EC50 worked out at 0.52 nM. For the molecule `CCN1C(=O)c2c(O)c(=O)c(C(=O)NCc3c(F)cc(F)cc3F)cn2[C@H]2CC(F)(F)C[C@H]21` [Compound I-002], the EC50 turned out to be 1.5 nM. Same read-out and setting: the result for `CCN1C(=O)c2c(O)c(=O)c(C(=O)NCc3ccc(F)cc3F)cn2[C@H]2CCCC[C@H]21` [Compound I-025] reads 2.1 nM; that for `CCN1C(=O)c2c(O)c(=O)c(C(=O)NCc3cccc(Cl)c3F)cn2[C@H]2CCC(F)(F)C[C@H]21` [Compound I-011], 9 nM; that for `CN1C(=O)c2c(O)c(=O)c(C(=O)NCc3cccc(Cl)c3F)cn2[C@H]2CCCC[C@H]21` [Compound I-028], 1.2 nM. `CCN1C(=O)c2c(O)c(=O)c(C(=O)NCc3cccc(Cl)c3F)cn2[C@H]2C[C@@H](COC)CC[C@H]21` [Compound I-014]: the EC50 stood at 3.8 nM. For `CCN1C(=O)c2c(O)c(=O)c(-c3nnc(Cc4ccc(F)cc4F)s3)cn2[C@H]2CCC(F)(F)C[C@H]21` [Compound I-023], the EC50 stood at 4.6 nM.

As to `CCN1C(=O)c2c(O)c(=O)c(C(=O)NCc3cccc(Cl)c3F)cn2[C@H]2CCCC(F)(F)[C@H]21` [Compound I-007], the EC50 turned out to be 0.7 nM. Consider `CCN1C(=O)c2c(O)c(=O)c(C(=O)NCc3c(F)cc(F)cc3F)cn2[C@H]2CCCC[C@H]21` [Compound I-026], for which the EC50 was determined as 1.3 nM. On the same count and under the same terms, for `CN1C(=O)c2c(O)c(=O)c(C(=O)NCc3nccc(Cl)c3F)cn2[C@H]2CCCC[C@H]21` [Compound I-004] the value was 3.3 nM; for `CCN1C(=O)c2c(O)c(=O)c(C(=O)NCc3c(F)cc(F)cc3F)cn2[C@H]2CCC(F)(F)C[C@H]21` [Compound I-012], 0.93 nM. In the case of `CN1C(=O)c2c(O)c(=O)c(-c3nnc(Cc4ccc(F)cc4F)s3)cn2[C@H]2CCCC[C@H]21` [Compound I-018], the EC50 is 2.3 nM.

The next experiment has as its system HIV mutant strains (E92Q/E138T/G140S/Q148H). Put plainly: Test Example 2: Resistance evaluation test (HeLa-CD4 cells, wild and mutant strain). In kind it is cell-based. As to conditions: 3 days. Here is the method: Test Example 2: Resistance Evaluation Test
Serial dilutions of a test sample were prepared in a 96-well microplate (50 μL/well). 2.5×10^5 cells/mL of a HeLa-CD4 cell suspension was dispensed at 100 μL/well to the plate containing the test sample. Then, an HIV virus solution (wild strain and mutant strain) was dispensed at 50 μL/well. The plate was mixed with a plate mixer and cultured for 3 days in a CO2 incubator. The culture supernatant in each well was removed by suction. A cell lysis buffer was dispensed at 100 μL/well, and the plate was frozen in a freezer (−80° C.). The plate frozen in a freezer was thawed at room temperature, then mixed with a plate mixer, and centrifuged at 1,200 rpm for 5 minutes. Beta-Glo Reagent was dispensed at 20 μL/well to a 384-well microplate, 2 μL of the supernatant of each well (diluted as necessary) of the plate after centrifugation was added, and then the mixture was reacted at room temperature for about 30 minutes. The amount of luminescence of the plate after the reaction was measured with a microplate reader. A 50% HIV inhibitory concentration (EC50) was determined from a concentration-dependent curve using the following 4 parameter logistic curve fitting model. y=A+((B−A)/(1+((C/x)^D))) • A=minimum rate of inhibition (negative control, 0%) • B=maximum rate of inhibition (positive control, 100%) • C=compound concentration at an inflection point • D=slope coefficient • x=compound concentration • y=rate of inhibition (%)
The degree of resistance (fold change (FC)) of each mutant strain was calculated according to the following expression. • FC=EC50 of the mutant strain/EC50 of the wild strain (Results)
For the molecule `CCN1C(=O)c2c(O)c(=O)c(C(=O)NCc3cccc(Cl)c3F)cn2[C@H]2C[C@@H](COC)CC[C@H]21` [Compound I-014], the “FC (fold change, degree of resistance) = EC50 of the mutant strain/EC50 of the wild strain” value stood at 4.1.
